Test results reported in BindingDB's records for PubMed 35695407 (Chinese Academy of Sciences, 2022).

Target: T1, Programmed cell death protein 4 (Homo sapiens, UniProt Q53EL6)
T1 sequence (Q53EL6 whole entry): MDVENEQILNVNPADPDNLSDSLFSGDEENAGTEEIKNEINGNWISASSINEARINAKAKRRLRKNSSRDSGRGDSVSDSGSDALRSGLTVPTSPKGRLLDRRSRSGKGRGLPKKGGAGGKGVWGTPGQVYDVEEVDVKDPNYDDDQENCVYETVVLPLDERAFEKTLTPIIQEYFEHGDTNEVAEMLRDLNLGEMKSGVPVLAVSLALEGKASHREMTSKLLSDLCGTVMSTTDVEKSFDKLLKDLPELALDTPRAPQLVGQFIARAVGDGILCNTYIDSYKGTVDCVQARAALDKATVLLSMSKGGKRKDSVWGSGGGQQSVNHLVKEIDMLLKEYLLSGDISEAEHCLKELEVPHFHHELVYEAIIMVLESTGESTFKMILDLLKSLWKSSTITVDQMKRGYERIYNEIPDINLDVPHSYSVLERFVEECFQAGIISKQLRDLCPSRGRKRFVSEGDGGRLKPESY
Experiment: Inhibition of PDCD4 in human HeLa cells tranfected with pCI-neo-luciferase-PDCD4 3'-UTR plasmid assessed as increase in luciferase activity by luciferase reporter assay

CCOC(=O)c1nc(-c2ccc(OC)cc2)oc1C
EC50: 2.25 µM
